Experimental data published in patent publication US8198273B2, “Compounds and methods for kinase modulation, and indications therefor” (Plexxikon Inc., priority 2009, dated 2012).

Assays:
[1] = target: CYP2C9 (Homo sapiens, UniProt P11712); assay: CYP2C9 inhibition (fluorescent substrate); format: in vitro ADME; conditions: CYP2C9, MFC substrate; read-out: Cyp IC50 2C9
Protocol: CYP (Cytochrome P450) enzymes are the major drug metabolizing enzymes present in the liver. The inhibition of CYP enzyme activity (IC50) for each of CYP1A2, CYP2C19, CYP2C9, CYP2D6, CYP3A4(BFC) and CYP3A4(BQ) is determined for compounds, where inhibition of metabolism of a known substrate leads to a decrease in the fluorescence of the metabolized product. The fluorescence of the product is monitored as a function of compound concentration.
(§1) Compounds are dissolved in dimethyl sulfoxide to a concentration of 100 mM. These are diluted 1 μL into 82 μL of acetonitrile. […] These are then serially diluted 1:1 (160 μL to 160 μL co-factor mix) for a total of 10 points. A 10 μL aliquot of this final mixture is dispensed into 384 well assay plates and incubated for 10 minutes at 37° C. […] Assay plates are incubated at 37° C. […] The signal versus compound concentration is used to determine the IC50. The enzymes and substrates for this assay are obtained from BD Biosciences.

[2] = target: CYP3A4(BFC) (Homo sapiens, UniProt P08684); assay: CYP3A4(BFC) inhibition (fluorescent substrate); format: in vitro ADME; conditions: read-out: Cyp IC50 3A4(BFC)
Sequence of CYP3A4(BFC) (P08684 whole entry): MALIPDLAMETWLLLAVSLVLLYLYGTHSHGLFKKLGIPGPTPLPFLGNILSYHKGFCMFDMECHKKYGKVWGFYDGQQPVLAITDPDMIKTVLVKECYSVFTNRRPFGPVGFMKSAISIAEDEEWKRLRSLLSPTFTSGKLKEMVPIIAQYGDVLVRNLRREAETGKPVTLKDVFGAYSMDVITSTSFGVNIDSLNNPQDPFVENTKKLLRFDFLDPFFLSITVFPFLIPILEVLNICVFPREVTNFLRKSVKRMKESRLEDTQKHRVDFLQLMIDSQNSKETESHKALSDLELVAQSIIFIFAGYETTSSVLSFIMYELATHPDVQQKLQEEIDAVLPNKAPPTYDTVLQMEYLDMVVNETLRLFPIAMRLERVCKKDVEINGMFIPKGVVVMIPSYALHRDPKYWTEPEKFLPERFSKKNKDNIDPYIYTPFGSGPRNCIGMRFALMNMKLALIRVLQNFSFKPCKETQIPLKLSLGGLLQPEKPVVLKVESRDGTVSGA
Protocol: as §1, with “CYP (Cytochrome P450) enzymes are the major drug metabolizing enzymes present in the liver. The inhibition of CYP enzyme activity (IC50) for each of CYP1A2, CYP2C19, CYP2C9, CYP2D6, CYP3A4(BFC) and CYP3A4(BQ) is determined for compounds, where inhibition of metabolism of a known substrate leads to a decrease in the fluorescence of the metabolized product. The fluorescence of the product is monitored as a function of compound concentration. Compounds” for “Compounds”

Sequence of CYP2C9 (P11712 whole entry): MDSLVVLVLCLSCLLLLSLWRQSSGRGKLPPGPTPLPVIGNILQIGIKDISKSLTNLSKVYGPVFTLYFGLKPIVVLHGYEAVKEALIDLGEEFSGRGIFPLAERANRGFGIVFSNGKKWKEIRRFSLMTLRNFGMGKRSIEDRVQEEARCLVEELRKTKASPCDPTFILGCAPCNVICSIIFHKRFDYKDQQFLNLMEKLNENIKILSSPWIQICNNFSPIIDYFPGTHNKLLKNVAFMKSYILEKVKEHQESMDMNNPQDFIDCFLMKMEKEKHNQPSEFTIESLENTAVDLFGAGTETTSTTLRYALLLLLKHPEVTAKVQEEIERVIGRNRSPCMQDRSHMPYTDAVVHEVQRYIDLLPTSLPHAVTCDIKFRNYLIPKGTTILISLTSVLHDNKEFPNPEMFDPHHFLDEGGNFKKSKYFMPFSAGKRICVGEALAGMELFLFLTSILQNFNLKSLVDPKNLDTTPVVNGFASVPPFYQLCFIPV

| IC50 [1] | IC50 [2] | Structure (SMILES) |
| --- | --- | --- |
| < 5 µM | < 5 µM | Cc1cnc2[nH]cc(C(=O)c3c(F)ccc(NS(=O)(=O)c4cccnc4)c3F)c2c1 [P-2069, Pyridine-3-sulfonic acid [2,4-difluoro-3-(5-methyl-1H-pyrrolo[2,3-b]pyridine-3-carbonyl)-phenyl]-amide] |
| > 10 µM | > 10 µM | COc1ncc(-c2cnc3[nH]cc(C(=O)c4c(F)ccc(NS(=O)(=O)c5c(F)cccc5F)c4F)c3c2)cn1 [P-2043, N-{2,4-Difluoro-3-[5-(2-methoxy-pyrimidin-5-yl)-1H-pyrrolo[2,3-b]pyridine-3-carbonyl]-phenyl}-2,6-difluoro-benzenesulfonamide] |
| 5 to 10 µM | > 10 µM | COc1ncc(-c2cnc3[nH]cc(C(=O)c4c(F)ccc(NS(=O)(=O)c5cc(F)ccc5F)c4F)c3c2)cn1 [P-2042, N-{2,4-Difluoro-3-[5-(2-methoxy-pyrimidin-5-yl)-1H-pyrrolo[2,3-b]pyridine-3-carbonyl]-phenyl}-2,5-difluoro-benzenesulfonamide] |
| > 10 µM | > 10 µM | CCCS(=O)(=O)Nc1ccc(F)c(C(=O)c2c[nH]c3ncc(-c4ccc(OCCCN5CCCC5)nc4)cc23)c1F [P-2235, Propane-1-sulfonic acid (2,4-difluoro-3-{5-[6-(3-pyrrolidin-1-yl-propoxy)-pyridin-3-yl]-1H-pyrrolo[2,3-b]pyridine-3-carbonyl}-phenyl)-amide] |
| > 10 µM | > 10 µM | COc1ccnc2[nH]cc(C(=O)c3c(F)ccc(NS(=O)(=O)c4ccccc4F)c3F)c12 [P-2021, N-[2,4-Difluoro-3-(4-methoxy-1H-pyrrolo[2,3-b]pyridine-3-carbonyl)-phenyl]-2-fluoro-benzenesulfonamide] |
| > 10 µM | > 10 µM | CCCS(=O)(=O)Nc1ccc(F)c(C(=O)c2c[nH]c3ncc(-c4cnc(N5CCOCC5)nc4)cc23)c1F [P-2197, Propane-1-sulfonic acid {2,4-difluoro-3-[5-(2-morpholin-4-yl-pyrimidin-5-yl)-1H-pyrrolo[2,3-b]pyridine-3-carbonyl]-phenyl}-amide] |
| 5 to 10 µM | > 10 µM | CCCc1ccc(-c2cnc3[nH]cc(C(=O)c4c(F)ccc(NS(=O)(=O)CCC)c4F)c3c2)cn1 [P-2224, Propane-1-sulfonic acid {2,4-difluoro-3-[5-(6-propyl-pyridin-3-yl)-1H-pyrrolo[2,3-b]pyridine-3-carbonyl]-phenyl}-amide] |
| > 10 µM | > 10 µM | COc1ncc(-c2cnc3[nH]cc(C(=O)c4c(F)ccc(NS(=O)(=O)c5cccc(F)c5)c4F)c3c2)cn1 [P-2045, N-{2,4-Difluoro-3-[5-(2-methoxy-pyrimidin-5-yl)-1H-pyrrolo[2,3-b]pyridine-3-carbonyl]-phenyl}-3-fluoro-benzenesulfonamide] |
| > 10 µM | > 10 µM | CCCS(=O)(=O)Nc1ccc(F)c(C(=O)c2c[nH]c3ncc(-c4cnc(OC)nc4OC)cc23)c1F [P-2199, Propane-1-sulfonic acid {3-[5-(2,4-dimethoxy-pyrimidin-5-yl)-1H-pyrrolo[2,3-b]pyridine-3-carbonyl]-2,4-difluoro-phenyl}-amide] |
| > 10 µM | > 10 µM | CCCS(=O)(=O)Nc1ccc(F)c(C(=O)c2c[nH]c3ncc(-c4cccc(S(C)(=O)=O)c4)cc23)c1F [P-2228, Propane-1-sulfonic acid {2,4-difluoro-3-[5-(3-methanesulfonyl-phenyl)-1H-pyrrolo[2,3-b]pyridine-3-carbonyl]-phenyl}-amide] |
| > 10 µM | > 10 µM | CCCS(=O)(=O)Nc1ccc(F)c(C(=O)c2c[nH]c3ncc(-c4ccc(OCCN5CCCC5)nc4)cc23)c1F [P-2233, Propane-1-sulfonic acid (2,4-difluoro-3-{5-[6-(2-pyrrolidin-1-yl-ethoxy)-pyridin-3-yl]-1H-pyrrolo[2,3-b]pyridine-3-carbonyl}-phenyl)-amide] |
| 5 to 10 µM | > 10 µM | CCCS(=O)(=O)Nc1ccc(F)c(C(=O)c2c[nH]c3ncc(-c4ccc(OC)nc4OC)cc23)c1F [P-2184, Propane-1-sulfonic acid {3-[5-(2,6-dimethoxy-pyridin-3-yl)-1H-pyrrolo[2,3-b]pyridine-3-carbonyl]-2,4-difluoro-phenyl}-amide] |
| > 10 µM | > 10 µM | COc1ncc(-c2cnc3[nH]cc(C(=O)c4c(F)ccc(NS(=O)(=O)c5ccccc5F)c4F)c3c2)cn1 [P-2041, N-{2,4-Difluoro-3-[5-(2-methoxy-pyrimidin-5-yl)-1H-pyrrolo[2,3-b]pyridine-3-carbonyl]-phenyl}-2-fluoro-benzenesulfonamide] |
| < 5 µM | > 10 µM | CCCS(=O)(=O)Nc1ccc(F)c(C(=O)c2c[nH]c3ncc(-c4ccc(CCCOC)nc4)cc23)c1F [P-2226, Propane-1-sulfonic acid (2,4-difluoro-3-{5-[6-(3-methoxy-propyl)-pyridin-3-yl]-1H-pyrrolo[2,3-b]pyridine-3-carbonyl}-phenyl)-amide] |
| 5 to 10 µM | > 10 µM | CCCS(=O)(=O)Nc1ccc(F)c(C(=O)c2c[nH]c3ncc(-c4cncc(S(C)(=O)=O)c4)cc23)c1F [P-2188, Propane-1-sulfonic acid {2,4-difluoro-3-[5-(5-methanesulfonyl-pyridin-3-yl)-1H-pyrrolo[2,3-b]pyridine-3-carbonyl]-phenyl}-amide] |
| 5 to 10 µM | > 10 µM | CCCS(=O)(=O)Nc1ccc(F)c(C(=O)c2c[nH]c3ncc(-c4ccc(C(=O)NCC)nc4)cc23)c1F [P-2151, 5-{3-[2,6-Difluoro-3-(propane-1-sulfonylamino)-benzoyl]-1H-pyrrolo[2,3-b]pyridin-5-yl}-pyridine-2-carboxylic acid ethylamide] |
| > 10 µM | > 10 µM | CCCS(=O)(=O)Nc1ccc(F)c(C(=O)c2c[nH]c3ncc(-c4ccc(S(N)(=O)=O)cc4)cc23)c1F [P-2194, 4-{3-[2,6-Difluoro-3-(propane-1-sulfonylamino)-benzoyl]-1H-pyrrolo[2,3-b]pyridin-5-yl}-benzenesulfonamide] |
| 5 to 10 µM | > 10 µM | CCCS(=O)(=O)Nc1cccc(C(=O)c2c[nH]c3ncc(-c4cnc(N(C)C)nc4)cc23)c1F [P-2408, Propane-1-sulfonic acid {3-[5-(2-dimethylamino-pyrimidin-5-yl)-1H-pyrrolo[2,3-b]pyridine-3-carbonyl]-2-fluoro-phenyl}-amide] |
| 5 to 10 µM | 5 to 10 µM | COc1ccnc2[nH]cc(C(=O)c3c(F)ccc(NS(=O)(=O)c4cccc(F)c4)c3F)c12 [P-2023, N-[2,4-Difluoro-3-(4-methoxy-1H-pyrrolo[2,3-b]pyridine-3-carbonyl)-phenyl]-3-fluoro-benzenesulfonamide] |
| 5 to 10 µM | < 5 µM | C#Cc1cnc2[nH]cc(C(=O)c3c(F)ccc(NS(=O)(=O)CCC)c3F)c2c1 [P-2260, Propane-1-sulfonic acid [3-(5-ethynyl-1H-pyrrolo[2,3-b]pyridine-3-carbonyl)-2,4-difluoro-phenyl]-amide] |
| < 5 µM | > 10 µM | CCCS(=O)(=O)Nc1ccc(F)c(C(=O)c2c[nH]c3ncc(-c4cnn(Cc5ccccc5)c4)cc23)c1F [P-2190, Propane-1-sulfonic acid {3-[5-(1-benzyl-1H-pyrazol-4-yl)-1H-pyrrolo[2,3-b]pyridine-3-carbonyl]-2,4-difluoro-phenyl}-amide] |
| < 5 µM | > 10 µM | CCCS(=O)(=O)Nc1ccc(F)c(C(=O)c2c[nH]c3ncc(-c4ccc(C(=O)NC5CC5)nc4)cc23)c1F [P-2181, 5-{3-[2,6-Difluoro-3-(propane-1-sulfonylamino)-benzoyl]-1H-pyrrolo[2,3-b]pyridin-5-yl}-pyridine-2-carboxylic acid cyclopropylamide] |
| > 10 µM | > 10 µM | CCCS(=O)(=O)Nc1ccc(F)c(C(=O)c2c[nH]c3ncc(-c4ccc(SC)nc4)cc23)c1F [P-2187, Propane-1-sulfonic acid {2,4-difluoro-3-[5-(6-methylsulfanyl-pyridin-3-yl)-1H-pyrrolo[2,3-b]pyridine-3-carbonyl]-phenyl}-amide] |
| 5 to 10 µM | > 10 µM | CCCS(=O)(=O)Nc1ccc(F)c(C(=O)c2c[nH]c3ncc(-c4ccc(OCCN5CCOCC5)nc4)cc23)c1F [P-2232, Propane-1-sulfonic acid (2,4-difluoro-3-{5-[6-(2-morpholin-4-yl-ethoxy)-pyridin-3-yl]-1H-pyrrolo[2,3-b]pyridine-3-carbonyl}-phenyl)-amide] |
| 5 to 10 µM | > 10 µM | CCCS(=O)(=O)Nc1ccc(F)c(C(=O)c2c[nH]c3ncc(-c4ccc(N5CCCC5)nc4)cc23)c1F [P-2231, Propane-1-sulfonic acid {2,4-difluoro-3-[5-(6-pyrrolidin-1-yl-pyridin-3-yl)-1H-pyrrolo[2,3-b]pyridine-3-carbonyl]-phenyl}-amide] |
